Literature values as cited in patent US20040192658A1, “Compositions and methods of using collajolie” (Angiotech International AG, priority 2002, published 2004).

What was measured:
interstitial collagenase = biological target: T1, interstitial collagenase (Homo sapiens, UniProt P03956); details: compared with TIMP-2
T1 sequence (P03956 100-469): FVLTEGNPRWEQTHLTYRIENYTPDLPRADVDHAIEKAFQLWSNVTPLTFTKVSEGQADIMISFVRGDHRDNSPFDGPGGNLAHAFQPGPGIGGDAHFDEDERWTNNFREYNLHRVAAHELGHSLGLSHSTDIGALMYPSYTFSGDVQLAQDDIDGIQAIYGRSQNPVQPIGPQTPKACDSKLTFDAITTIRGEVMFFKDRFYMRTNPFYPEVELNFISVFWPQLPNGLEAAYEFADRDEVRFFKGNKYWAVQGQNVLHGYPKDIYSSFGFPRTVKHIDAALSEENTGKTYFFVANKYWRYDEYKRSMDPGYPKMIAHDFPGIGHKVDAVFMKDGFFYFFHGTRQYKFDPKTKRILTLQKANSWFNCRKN

collagenase 1 = biological target: T2, collagenase 1 (Homo sapiens, UniProt P03956)
T2 sequence (P03956 100-469): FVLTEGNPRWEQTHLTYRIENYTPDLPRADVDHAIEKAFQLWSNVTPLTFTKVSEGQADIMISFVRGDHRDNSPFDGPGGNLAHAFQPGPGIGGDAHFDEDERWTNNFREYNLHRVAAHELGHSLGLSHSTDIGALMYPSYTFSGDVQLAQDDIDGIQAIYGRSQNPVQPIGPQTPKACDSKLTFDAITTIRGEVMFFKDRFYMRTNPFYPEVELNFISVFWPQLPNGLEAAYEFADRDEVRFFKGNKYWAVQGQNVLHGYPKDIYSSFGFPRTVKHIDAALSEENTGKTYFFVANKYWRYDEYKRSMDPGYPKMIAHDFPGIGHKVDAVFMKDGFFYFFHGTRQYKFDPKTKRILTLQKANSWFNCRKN

gelatinase B = gelatinase B (Homo sapiens, UniProt P14780)
Chain of gelatinase B (P14780 94-707, species assumed): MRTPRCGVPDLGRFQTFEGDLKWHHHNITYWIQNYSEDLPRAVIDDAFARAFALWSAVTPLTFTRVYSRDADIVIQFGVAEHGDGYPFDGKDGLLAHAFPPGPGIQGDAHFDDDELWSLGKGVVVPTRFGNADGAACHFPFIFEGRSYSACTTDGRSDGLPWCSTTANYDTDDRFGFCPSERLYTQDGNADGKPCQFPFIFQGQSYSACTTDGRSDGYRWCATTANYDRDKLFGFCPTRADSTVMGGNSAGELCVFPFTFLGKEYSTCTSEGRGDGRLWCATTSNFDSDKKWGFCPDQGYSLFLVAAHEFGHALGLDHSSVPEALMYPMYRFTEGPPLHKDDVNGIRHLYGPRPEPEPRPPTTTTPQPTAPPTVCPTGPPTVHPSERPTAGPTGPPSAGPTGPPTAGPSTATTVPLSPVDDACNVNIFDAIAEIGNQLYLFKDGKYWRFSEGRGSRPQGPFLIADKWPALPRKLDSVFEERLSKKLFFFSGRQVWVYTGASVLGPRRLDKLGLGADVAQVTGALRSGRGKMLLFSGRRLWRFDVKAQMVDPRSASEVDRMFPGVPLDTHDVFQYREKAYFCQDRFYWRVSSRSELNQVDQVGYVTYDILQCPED

gelatinase A = biological target: T3, gelatinase A (Homo sapiens, UniProt P08253)
T3 sequence (P08253 110-660): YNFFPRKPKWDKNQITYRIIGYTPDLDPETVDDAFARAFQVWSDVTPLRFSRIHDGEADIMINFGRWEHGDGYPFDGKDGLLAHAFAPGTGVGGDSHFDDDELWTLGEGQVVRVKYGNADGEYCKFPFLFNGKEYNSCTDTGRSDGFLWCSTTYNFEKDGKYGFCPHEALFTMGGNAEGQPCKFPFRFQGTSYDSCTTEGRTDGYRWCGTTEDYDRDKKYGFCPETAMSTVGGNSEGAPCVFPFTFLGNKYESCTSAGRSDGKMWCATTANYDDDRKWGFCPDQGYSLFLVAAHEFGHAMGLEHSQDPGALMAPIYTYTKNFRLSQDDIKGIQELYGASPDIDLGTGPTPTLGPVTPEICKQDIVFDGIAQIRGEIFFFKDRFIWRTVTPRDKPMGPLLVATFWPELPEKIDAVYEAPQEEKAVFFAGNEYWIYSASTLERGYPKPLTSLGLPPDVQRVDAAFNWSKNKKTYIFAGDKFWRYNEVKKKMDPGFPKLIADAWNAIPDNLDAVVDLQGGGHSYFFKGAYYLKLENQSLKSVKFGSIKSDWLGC

## CNC(=O)[C@@H](NC(=O)[C@H](CC(C)C)[C@H](O)C(=O)NO)C(C)(C)C
Single daily dose
  established well tolerated single daily dose: 50 mg

## CN1C(=O)N(C[C@H](C(=O)NO)[C@@H](CC2CCCC2)C(=O)N2CCCCC2)C(=O)C1(C)C [TROCADE]
other
  established (well) tolerated single dose: 150 mg

## CN(C)c1ccc(O)c2c1C[C@H]1C[C@H]3[C@H](N(C)C)C(O)=C(C(N)=O)C(=O)[C@@]3(O)C(O)=C1C2=O [minocycline, 7-dimethylamino-6-dimethyl-6-deoxytetracycline]
other
  well tolerated daily dosage: 200 mg
  established (well) tolerated single dose: 200 mg

## CN(C)[C@@H]1C(O)=C(C(N)=O)C(=O)[C@@]2(O)C(O)=C3C(=O)c4c(O)cccc4[C@@](C)(O)C3C[C@@H]12 (stereo in doubt) [tetracycline, 4-(dimethylamino)-1,4,4a,5,5a,6,11,12a-octahydro-3,6,10,12,12a-pentahydroxy-6-methyl-1,11-dioxo-2-naphthacenecarboxamide]
other
  well tolerated daily dosage: 1000 mg
  established (well) tolerated single dose: 1000 mg

## C[C@H]1c2cccc(O)c2C(=O)C2=C(O)[C@]3(O)C(=O)C(C(N)=O)=C(O)[C@@H](N(C)C)[C@@H]3[C@@H](O)[C@@H]21 [doxycycline, α-6-deoxy-5-hydroxy-tetracycline]
other
  well tolerated daily dosage: 100 mg
  established (well) tolerated single dose: 200 mg

## TIMP-1: 30 kD Tissue Inhibitor of Matrix Metalloproteinase, the most commonly expressed TIMP molecule
Interstitial collagenase
  inhibition of interstitial collagenase: better inhibitor of interstitial collagenase than TIMP-2

B1: TIMP-3: 21 kD Tissue Inhibitor of Matrix Metalloproteinase (protein, UniProt P35625 24-211, looked up)
Metalloproteinase inhibitor 3: CTCSPSHPQDAFCNSDIVIRAKVVGKKLVKEGPFGTLVYTIKQMKMYRGFTKMPHVQYIHTEASESLCGLKLEVNKYQYLLTGRVYDGKMYTGLCNFVERWDQLTLSQRKGLNYRYHLGCNCKIKSCYYLPCFVTSKNECLWTDMLSNFGYPGYQSKHYACIRQKGGYCSWYRGWAPPDKSIINATDP
Collagenase 1
  inhibition of collagenase 1: inhibits
Gelatinase B
  inhibition of gelatinase B: inhibits
Gelatinase A
  inhibition of gelatinase A: inhibits
stromelysin
  inhibition of stromelysin: inhibits
